# Values quoted from earlier work, collected in PMC8711005, “Phase 1 Dose-Escalation Study of Plasma Kallikrein Inhibitor THR-149 for the Treatment of Diabetic Macular Edema” (Translational Vision Science & Technology, 2021).
# Tested on: subjects with center-involved DME
# Details: single IVT injection, 14 subjects with center-involved DME, Month 3
# Description: A recent phase I study of another PKal inhibitor, KVD001, enrolled 14 subjects with center-involved DME who had received prior anti-VEGF treatment.[30] Baseline demographics were similar to those in the current study, with some notable differences in baseline ocular characteristics, including higher baseline BCVA and lower CST relative to those enrolled in our study. The maximum BCVA increase following a single IVT injection of KVD001 was 4.1 ETDRS letters at Month 3, with a corresponding mean reduction of 23 µm in CST. Rescue treatment was allowed; however, the frequency and imputation method ...
smiles,measurement,value
CCOc1ccc(C[C@@H](NC(=O)c2ccccc2)C(=O)N[C@@H](Cc2ccccc2)C(=O)NCc2ccc(CN)cc2)cc1 [KVD001],Maximum BCVA increase,4.1 ETDRS letters
same,Mean reduction in CST,23 µm
